Reference: ChEMBL document CHEMBL1909046, “DrugMatrix in vitro pharmacology data”

Biological target: Prostaglandin G/H synthase 1 (Homo sapiens, UniProt P23219);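 further: inhibition of COX-1 enzyme activity, with arachidonic acid supplied as substrate; in other assays of this panel Not Active means under 50% inhibition at 10 µM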
Experiment: biochemical
Assay type: tissue-based, Platelet
Conditions: platelet

Chain of Prostaglandin G/H synthase 1 (P23219 whole entry): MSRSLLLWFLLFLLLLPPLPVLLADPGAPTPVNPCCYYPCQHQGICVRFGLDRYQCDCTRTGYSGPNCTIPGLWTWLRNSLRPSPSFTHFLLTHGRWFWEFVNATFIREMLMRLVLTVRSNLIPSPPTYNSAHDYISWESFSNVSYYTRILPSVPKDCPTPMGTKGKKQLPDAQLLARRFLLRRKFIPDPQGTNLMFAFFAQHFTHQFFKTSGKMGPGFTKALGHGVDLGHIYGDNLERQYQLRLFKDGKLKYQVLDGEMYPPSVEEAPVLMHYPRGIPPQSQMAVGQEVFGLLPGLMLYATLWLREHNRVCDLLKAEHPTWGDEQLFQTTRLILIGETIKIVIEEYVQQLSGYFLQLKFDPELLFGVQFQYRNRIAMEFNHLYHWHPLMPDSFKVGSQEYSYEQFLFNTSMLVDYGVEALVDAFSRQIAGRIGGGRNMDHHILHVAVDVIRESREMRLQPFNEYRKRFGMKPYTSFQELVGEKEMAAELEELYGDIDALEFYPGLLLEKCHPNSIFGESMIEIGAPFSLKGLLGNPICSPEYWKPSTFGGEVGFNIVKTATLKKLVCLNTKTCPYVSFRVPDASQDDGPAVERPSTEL

Row | Compound | IC50
1 | COC(=O)C1=C(C)NC(C)=C(C(=O)OC)C1c1ccccc1[N+](=O)[O-] [NIFEDIPINE] | Not Active
2 | NC(=O)c1ccccc1O [SALICYLAMIDE] | Not Active
3 | Nc1ccc(S(N)(=O)=O)cc1 [SULFANILAMIDE] | Not Active
4 | CC1CN(c2cc3c(cc2F)c(=O)c(C(=O)O)cn3-c2ccc(F)cc2F)CCN1 (stereo not given) [TEMAFLOXACIN] | Not Active

Test system: not listed separately
Experiment: DRUGMATRIX: Phosphodiesterase PDE4 enzyme inhibition (substrate: [3H]cAMP + cAMP)
Conditions: u-937; Not Active = under 50% inhibition at 10 µM

Row | Compound | IC50 | Ki
5 | NC(=O)c1ccccc1O [SALICYLAMIDE] | Not Active | Not Active
6 | Nc1ccc(S(N)(=O)=O)cc1 [SULFANILAMIDE] | Not Active | Not Active
7 | CC1CN(c2cc3c(cc2F)c(=O)c(C(=O)O)cn3-c2ccc(F)cc2F)CCN1 (stereo not given) [TEMAFLOXACIN] | Not Active | Not Active

Same assay, conditions: u-937; Not Active = under 50% inhibition at 10 µM; read-out: IC50

Row | Compound | IC50
8 | COC(=O)C1=C(C)NC(C)=C(C(=O)OC)C1c1ccccc1[N+](=O)[O-] [NIFEDIPINE] | 44.2 µM

Biological target: Beta-3 adrenergic receptor (Homo sapiens, UniProt P13945)
Experiment: DRUGMATRIX: Adrenergic beta3 radioligand binding (ligand: [125I] Cyanopindolol)
Assay type: cell membranes, HEK293, Membrane
Conditions: hek293; Not Active = under 50% inhibition at 10 µM

Chain of Beta-3 adrenergic receptor (P13945 whole entry): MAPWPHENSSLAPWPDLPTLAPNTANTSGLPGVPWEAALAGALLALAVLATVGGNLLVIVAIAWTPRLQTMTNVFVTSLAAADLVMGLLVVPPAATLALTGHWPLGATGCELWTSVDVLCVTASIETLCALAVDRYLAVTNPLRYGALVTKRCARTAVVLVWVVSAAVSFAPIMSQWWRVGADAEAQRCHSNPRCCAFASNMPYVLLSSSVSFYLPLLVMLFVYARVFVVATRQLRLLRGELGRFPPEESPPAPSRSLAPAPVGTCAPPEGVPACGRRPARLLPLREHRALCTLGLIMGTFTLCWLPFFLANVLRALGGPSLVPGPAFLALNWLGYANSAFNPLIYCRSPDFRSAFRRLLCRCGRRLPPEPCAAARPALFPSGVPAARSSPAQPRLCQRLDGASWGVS

Row | Compound | IC50
9 | COC(=O)C1=C(C)NC(C)=C(C(=O)OC)C1c1ccccc1[N+](=O)[O-] [NIFEDIPINE] | Not Active
10 | NC(=O)c1ccccc1O [SALICYLAMIDE] | Not Active
11 | Nc1ccc(S(N)(=O)=O)cc1 [SULFANILAMIDE] | Not Active
12 | CC1CN(c2cc3c(cc2F)c(=O)c(C(=O)O)cn3-c2ccc(F)cc2F)CCN1 (stereo not given) [TEMAFLOXACIN] | Not Active

Biological target: Protein kinase C alpha type (Homo sapiens, UniProt P17252);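 further: inhibition of PKCalpha kinase activity measured in an enzyme assay with histone as the phosphorylation substrate; in other assays of this panel Not Active means under 50% inhibition at 10 µM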
Experiment: not given
Assay type: cell-based
Conditions: sf9

Row | Compound | IC50
13 | COC(=O)C1=C(C)NC(C)=C(C(=O)OC)C1c1ccccc1[N+](=O)[O-] [NIFEDIPINE] | Not Active
14 | NC(=O)c1ccccc1O [SALICYLAMIDE] | Not Active
15 | Nc1ccc(S(N)(=O)=O)cc1 [SULFANILAMIDE] | Not Active
16 | CC1CN(c2cc3c(cc2F)c(=O)c(C(=O)O)cn3-c2ccc(F)cc2F)CCN1 (stereo not given) [TEMAFLOXACIN] | Not Active

Test system: not listed separately
Experiment: DRUGMATRIX: Sodium/nucleoside co-transporter radioligand binding (ligand: nitrobenzylthioinosine)
Assay type: cell membranes, Cavia porcellus, Dunkin-Hartley, Cerebral cortex, Membrane
Conditions: Not Active = under 50% inhibition at 10 µM

Row | Compound | IC50 | Ki
17 | NC(=O)c1ccccc1O [SALICYLAMIDE] | Not Active | Not Active
18 | Nc1ccc(S(N)(=O)=O)cc1 [SULFANILAMIDE] | Not Active | Not Active
19 | CC1CN(c2cc3c(cc2F)c(=O)c(C(=O)O)cn3-c2ccc(F)cc2F)CCN1 (stereo not given) [TEMAFLOXACIN] | Not Active | Not Active

Same assay, conditions: Not Active = under 50% inhibition at 10 µM; read-out: IC50

Row | Compound | IC50
20 | COC(=O)C1=C(C)NC(C)=C(C(=O)OC)C1c1ccccc1[N+](=O)[O-] [NIFEDIPINE] | 23.8 µM

Same assay, conditions: Not Active = under 50% inhibition at 10 µM; read-out: Ki

Row | Compound | Ki
21 | COC(=O)C1=C(C)NC(C)=C(C(=O)OC)C1c1ccccc1[N+](=O)[O-] [NIFEDIPINE] | 8.15 µM

Biological target: T1, D(4) dopamine receptor (Homo sapiens, UniProt P21917)
T1 sequence (P21917 whole entry): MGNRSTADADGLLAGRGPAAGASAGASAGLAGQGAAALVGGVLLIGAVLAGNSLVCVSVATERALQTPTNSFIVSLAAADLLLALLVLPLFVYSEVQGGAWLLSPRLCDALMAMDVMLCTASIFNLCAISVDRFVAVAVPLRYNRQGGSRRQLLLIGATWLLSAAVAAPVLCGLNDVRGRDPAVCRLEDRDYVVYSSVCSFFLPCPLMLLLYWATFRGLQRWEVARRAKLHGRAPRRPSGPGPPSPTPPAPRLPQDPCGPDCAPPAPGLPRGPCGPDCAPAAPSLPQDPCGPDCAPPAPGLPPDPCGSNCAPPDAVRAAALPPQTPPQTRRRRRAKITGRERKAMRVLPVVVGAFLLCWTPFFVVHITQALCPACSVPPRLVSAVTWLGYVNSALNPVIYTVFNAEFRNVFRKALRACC
Experiment: DRUGMATRIX: Dopamine D4.2 radioligand binding (ligand: [3H] Spiperone)
Assay type: cell membranes, CHO-K1, Membrane
Conditions: cho-k1; Not Active = under 50% inhibition at 10 µM

Row | Compound | IC50
22 | COC(=O)C1=C(C)NC(C)=C(C(=O)OC)C1c1ccccc1[N+](=O)[O-] [NIFEDIPINE] | Not Active
23 | NC(=O)c1ccccc1O [SALICYLAMIDE] | Not Active
24 | Nc1ccc(S(N)(=O)=O)cc1 [SULFANILAMIDE] | Not Active
25 | CC1CN(c2cc3c(cc2F)c(=O)c(C(=O)O)cn3-c2ccc(F)cc2F)CCN1 (stereo not given) [TEMAFLOXACIN] | Not Active

Biological target: Glycine receptor (Rattus norvegicus, UniProt P22771+P24524+P07727+P20781); further: in other assays of this panel Not Active means under 50% inhibition at 10 µM
Experiment: not given
Assay type: cell membranes, Wistar, Spinal cord, Membrane
Conditions: not given

Row | Compound | IC50
26 | COC(=O)C1=C(C)NC(C)=C(C(=O)OC)C1c1ccccc1[N+](=O)[O-] [NIFEDIPINE] | Not Active
27 | NC(=O)c1ccccc1O [SALICYLAMIDE] | Not Active
28 | Nc1ccc(S(N)(=O)=O)cc1 [SULFANILAMIDE] | Not Active
29 | CC1CN(c2cc3c(cc2F)c(=O)c(C(=O)O)cn3-c2ccc(F)cc2F)CCN1 (stereo not given) [TEMAFLOXACIN] | Not Active

Biological target: T2, Alpha-1D adrenergic receptor (Homo sapiens, UniProt P25100); further: in other assays of this panel Not Active means under 50% inhibition at 10 µM
T2 sequence (P25100 whole entry): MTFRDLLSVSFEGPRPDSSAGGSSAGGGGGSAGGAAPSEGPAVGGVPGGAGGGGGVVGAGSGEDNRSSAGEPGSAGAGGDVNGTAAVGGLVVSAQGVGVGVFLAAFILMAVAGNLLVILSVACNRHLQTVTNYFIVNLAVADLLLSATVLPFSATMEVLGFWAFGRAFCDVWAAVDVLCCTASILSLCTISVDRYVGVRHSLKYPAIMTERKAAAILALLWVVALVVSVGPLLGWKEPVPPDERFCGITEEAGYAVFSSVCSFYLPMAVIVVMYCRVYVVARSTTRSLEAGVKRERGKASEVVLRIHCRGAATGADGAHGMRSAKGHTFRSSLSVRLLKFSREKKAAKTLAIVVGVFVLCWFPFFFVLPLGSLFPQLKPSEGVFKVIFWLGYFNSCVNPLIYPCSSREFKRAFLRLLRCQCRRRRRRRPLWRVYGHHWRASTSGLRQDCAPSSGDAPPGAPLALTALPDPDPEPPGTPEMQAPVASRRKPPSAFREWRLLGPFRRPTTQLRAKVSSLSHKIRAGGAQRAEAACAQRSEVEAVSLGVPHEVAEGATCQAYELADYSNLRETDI
Experiment: not given
Assay type: cell membranes, HEK293, Membrane
Conditions: hek293

Row | Compound | IC50
30 | COC(=O)C1=C(C)NC(C)=C(C(=O)OC)C1c1ccccc1[N+](=O)[O-] [NIFEDIPINE] | Not Active
31 | NC(=O)c1ccccc1O [SALICYLAMIDE] | Not Active
32 | Nc1ccc(S(N)(=O)=O)cc1 [SULFANILAMIDE] | Not Active
33 | CC1CN(c2cc3c(cc2F)c(=O)c(C(=O)O)cn3-c2ccc(F)cc2F)CCN1 (stereo not given) [TEMAFLOXACIN] | Not Active

Biological target: T3, Alpha-1A adrenergic receptor (Rattus norvegicus, UniProt P43140)
T3 sequence (P43140 whole entry): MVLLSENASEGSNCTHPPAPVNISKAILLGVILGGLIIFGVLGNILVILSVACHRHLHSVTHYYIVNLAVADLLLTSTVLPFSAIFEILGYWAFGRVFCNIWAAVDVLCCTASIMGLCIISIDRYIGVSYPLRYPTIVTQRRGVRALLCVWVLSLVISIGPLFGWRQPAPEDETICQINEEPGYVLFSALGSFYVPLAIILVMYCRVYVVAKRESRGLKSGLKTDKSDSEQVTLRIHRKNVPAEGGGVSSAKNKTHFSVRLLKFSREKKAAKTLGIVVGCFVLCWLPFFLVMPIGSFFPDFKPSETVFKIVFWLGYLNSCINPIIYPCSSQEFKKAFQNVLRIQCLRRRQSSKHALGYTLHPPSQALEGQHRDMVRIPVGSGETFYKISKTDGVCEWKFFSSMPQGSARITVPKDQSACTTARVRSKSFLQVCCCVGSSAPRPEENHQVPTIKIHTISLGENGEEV
Experiment: DRUGMATRIX: Alpha-1A adrenergic receptor radioligand binding (ligand: prazosin)
Assay type: cell membranes, Wistar, Submaxillary gland, Membrane
Conditions: Not Active = under 50% inhibition at 10 µM

Row | Compound | IC50
34 | COC(=O)C1=C(C)NC(C)=C(C(=O)OC)C1c1ccccc1[N+](=O)[O-] [NIFEDIPINE] | Not Active
35 | NC(=O)c1ccccc1O [SALICYLAMIDE] | Not Active
36 | Nc1ccc(S(N)(=O)=O)cc1 [SULFANILAMIDE] | Not Active
37 | CC1CN(c2cc3c(cc2F)c(=O)c(C(=O)O)cn3-c2ccc(F)cc2F)CCN1 (stereo not given) [TEMAFLOXACIN] | Not Active

Biological target: Epidermal growth factor receptor (Homo sapiens, UniProt P00533)
Experiment: DRUGMATRIX: Protein Tyrosine Kinase, EGF Receptor enzyme inhibition (substrate: Poly(Glu:Tyr))
Assay type: cell-based, Insect cells
Conditions: insect cells; Not Active = under 50% inhibition at 10 µM

Chain of Epidermal growth factor receptor (P00533 whole entry): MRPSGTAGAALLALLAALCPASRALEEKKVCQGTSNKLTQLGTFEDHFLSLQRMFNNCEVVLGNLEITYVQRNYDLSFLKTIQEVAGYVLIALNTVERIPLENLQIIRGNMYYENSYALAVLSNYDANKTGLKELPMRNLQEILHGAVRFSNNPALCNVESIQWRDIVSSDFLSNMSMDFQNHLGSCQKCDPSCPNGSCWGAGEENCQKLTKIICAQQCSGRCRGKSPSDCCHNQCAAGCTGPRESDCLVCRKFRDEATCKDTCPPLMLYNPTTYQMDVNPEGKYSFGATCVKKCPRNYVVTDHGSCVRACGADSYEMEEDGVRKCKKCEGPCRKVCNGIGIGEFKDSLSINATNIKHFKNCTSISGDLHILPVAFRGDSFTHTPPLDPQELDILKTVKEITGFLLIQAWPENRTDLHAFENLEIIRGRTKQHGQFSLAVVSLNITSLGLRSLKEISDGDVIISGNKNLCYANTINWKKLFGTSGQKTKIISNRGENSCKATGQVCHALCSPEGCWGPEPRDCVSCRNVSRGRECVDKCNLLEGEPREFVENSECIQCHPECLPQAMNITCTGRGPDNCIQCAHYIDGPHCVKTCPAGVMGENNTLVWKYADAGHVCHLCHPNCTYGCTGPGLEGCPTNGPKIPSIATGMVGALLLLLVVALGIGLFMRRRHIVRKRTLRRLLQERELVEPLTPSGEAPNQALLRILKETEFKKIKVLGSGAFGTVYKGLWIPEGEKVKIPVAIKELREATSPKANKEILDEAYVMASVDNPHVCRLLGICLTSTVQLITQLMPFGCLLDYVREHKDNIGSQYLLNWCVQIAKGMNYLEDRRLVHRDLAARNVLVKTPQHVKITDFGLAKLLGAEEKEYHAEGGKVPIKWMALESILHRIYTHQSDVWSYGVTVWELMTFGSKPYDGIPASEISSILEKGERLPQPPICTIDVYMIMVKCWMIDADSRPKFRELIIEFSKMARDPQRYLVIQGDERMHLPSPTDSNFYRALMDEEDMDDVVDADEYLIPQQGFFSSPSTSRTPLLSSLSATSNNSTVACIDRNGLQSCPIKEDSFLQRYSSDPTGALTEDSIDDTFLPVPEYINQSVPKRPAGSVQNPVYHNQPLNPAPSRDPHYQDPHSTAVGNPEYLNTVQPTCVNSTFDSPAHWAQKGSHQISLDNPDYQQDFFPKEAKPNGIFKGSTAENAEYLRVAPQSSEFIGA

Row | Compound | IC50
38 | COC(=O)C1=C(C)NC(C)=C(C(=O)OC)C1c1ccccc1[N+](=O)[O-] [NIFEDIPINE] | Not Active
39 | NC(=O)c1ccccc1O [SALICYLAMIDE] | Not Active
40 | Nc1ccc(S(N)(=O)=O)cc1 [SULFANILAMIDE] | Not Active
41 | CC1CN(c2cc3c(cc2F)c(=O)c(C(=O)O)cn3-c2ccc(F)cc2F)CCN1 (stereo not given) [TEMAFLOXACIN] | Not Active

Biological target: T4, Cathepsin G (Homo sapiens, UniProt P08311)
T4 sequence (P08311 whole entry): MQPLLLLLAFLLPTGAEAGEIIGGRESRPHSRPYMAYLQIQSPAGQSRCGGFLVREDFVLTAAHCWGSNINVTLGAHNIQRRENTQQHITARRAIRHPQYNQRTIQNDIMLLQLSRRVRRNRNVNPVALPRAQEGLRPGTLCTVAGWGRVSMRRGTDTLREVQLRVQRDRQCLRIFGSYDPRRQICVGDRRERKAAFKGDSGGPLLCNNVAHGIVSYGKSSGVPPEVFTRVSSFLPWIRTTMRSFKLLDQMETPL
Experiment: not given
Assay type: tissue-based
Conditions: neutrophil

Row | Compound | IC50
42 | COC(=O)C1=C(C)NC(C)=C(C(=O)OC)C1c1ccccc1[N+](=O)[O-] [NIFEDIPINE] | Not Active
43 | NC(=O)c1ccccc1O [SALICYLAMIDE] | Not Active
44 | Nc1ccc(S(N)(=O)=O)cc1 [SULFANILAMIDE] | Not Active
45 | CC1CN(c2cc3c(cc2F)c(=O)c(C(=O)O)cn3-c2ccc(F)cc2F)CCN1 (stereo not given) [TEMAFLOXACIN] | Not Active

Biological target: T5, Calcitonin receptor (Homo sapiens, UniProt P30988); further: in other assays of this panel Not Active means under 50% inhibition at 10 µM
T5 sequence (P30988 whole entry): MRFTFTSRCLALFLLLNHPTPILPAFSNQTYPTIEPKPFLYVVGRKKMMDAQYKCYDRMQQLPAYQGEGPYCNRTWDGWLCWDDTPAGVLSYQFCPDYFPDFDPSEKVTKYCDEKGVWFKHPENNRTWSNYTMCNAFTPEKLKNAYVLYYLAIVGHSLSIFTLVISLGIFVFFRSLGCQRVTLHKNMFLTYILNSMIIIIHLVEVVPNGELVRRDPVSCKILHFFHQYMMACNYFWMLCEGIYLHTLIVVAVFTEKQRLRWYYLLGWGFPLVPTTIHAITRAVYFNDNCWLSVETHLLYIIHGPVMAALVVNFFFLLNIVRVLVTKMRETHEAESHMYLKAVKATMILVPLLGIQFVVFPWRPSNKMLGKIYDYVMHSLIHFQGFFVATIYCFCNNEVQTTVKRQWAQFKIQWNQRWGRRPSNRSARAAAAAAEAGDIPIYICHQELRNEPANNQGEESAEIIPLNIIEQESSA
Experiment: not given
Assay type: cell membranes, Membrane
Conditions: t47d

Row | Compound | IC50
46 | COC(=O)C1=C(C)NC(C)=C(C(=O)OC)C1c1ccccc1[N+](=O)[O-] [NIFEDIPINE] | Not Active
47 | NC(=O)c1ccccc1O [SALICYLAMIDE] | Not Active
48 | Nc1ccc(S(N)(=O)=O)cc1 [SULFANILAMIDE] | Not Active
49 | CC1CN(c2cc3c(cc2F)c(=O)c(C(=O)O)cn3-c2ccc(F)cc2F)CCN1 (stereo not given) [TEMAFLOXACIN] | Not Active
